Laboratory results from patent publication US6831079B1, “Vasopressin agonist formulation and process” (American Cyanamid Company, priority 1999, dated 2004).

Target: Vasopressin V2 (Rattus norvegicus, UniProt Q00788)
Assay: Vasopressin V2 agonist effects in normal conscious water-loaded rats
Format: in vivo
Set-up: from tissue; host or cells: whole living Sprague-Dawley rat; the receptor is the animal's own (renal, by own knowledge)
Conditions: Sprague-Dawley (CD) rats; for Osmolality (% Increase): change in osmolality as percent of control; for Urine Volume (% decrease): vs. control
Excerpt: Vasopressin V2 Agonist Effects of Test Compounds in Normal Conscious Water-loaded Rats
Male or female normotensive Sprague-Dawley rats (Charles River Laboratories, Inc., Kingston, N.Y.) of 350-500 g body weight were supplied with standard rodent diet (Purina Rodent Lab. Chow 5001) and water ad libitum. On the day of test, rats were placed individually into metabolic cages equipped with devices to separate the feces from the urine and containers for collection of urine. […] The vehicle used was 20% dimethylsulfoxide (DMSO) in 2.5% preboiled corn starch. Thirty minutes after dosing the test compound, rats were gavaged with water at 30 ml/kg into the stomach using a feeding needle. During the test, rats were not provided with water or food. Urine was collected for four hours after dosing of the test compound. At the end of four hours, urine volume was measured. Urinary osmolality was determined using a Fiske One-Ten Osmometer (Fiske Associates, Norwood, Mass., 02062) or an Advanced CRYOMATIC Osmometer, Model 3C.2 (Advanced Instruments, Norwood, Mass.). Determinations of Na^+, K^+ and Cl^− ion were carried out using ion specific electrodes in a Beckman SYNCHRON EL-ISE Electrolyte System analyzer. The urinary osmolality should increase proportionally. In the screening test, two rats were used for each compound. If the difference in the urine volume of the two rats was greater than 50%, a third rat was used.

[1] = 10 mg/kg oral, urine collected four hours

Chain of Vasopressin V2 (Q00788 whole entry): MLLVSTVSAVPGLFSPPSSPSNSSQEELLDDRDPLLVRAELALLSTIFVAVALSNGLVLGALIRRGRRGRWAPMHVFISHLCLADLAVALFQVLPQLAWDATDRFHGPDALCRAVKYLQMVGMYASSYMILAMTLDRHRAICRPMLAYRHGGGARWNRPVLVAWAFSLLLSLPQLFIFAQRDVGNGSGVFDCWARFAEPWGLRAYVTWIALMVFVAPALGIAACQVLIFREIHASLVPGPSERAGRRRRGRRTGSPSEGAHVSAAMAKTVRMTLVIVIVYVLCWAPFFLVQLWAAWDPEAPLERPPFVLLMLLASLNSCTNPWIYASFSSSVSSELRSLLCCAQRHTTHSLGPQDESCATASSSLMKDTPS

| Osmolality (% Increase) (1 mg/kg) | Urine Volume (% decrease) (1 mg/kg) | Osmolality (% Increase) (10 mg/kg oral) [%] | Urine Volume (% decrease) [1] [%] | Structure (SMILES) |
| --- | --- | --- | --- | --- |
| – | – | 231 | 56 | O=C(c1ccc(-n2ccc(C3CC3)n2)cc1C(F)(F)F)N1Cc2cccn2Cc2ccccc21 [Example 5, [4-(3-Cyclopropyl-pyrazol-1-yl)-2-trifluoromethy-phenyl]-(5H,11H-pyrrolo[2,1-c][1,4]benzodiazepin-10-yl)-methanone] |
| – | – | 322 | 80 | CC(=O)c1ccc(C(=O)N2Cc3cccn3Cc3ccccc32)cc1 [Example 22, 1-[4-(5H,11H-Pyrrolo[2,1-c][1,4]benzodiazepine-10-carbonyl)-phenyl]-ethanone] |
| – | – | 159 | 47 | O=C(c1ccc(-c2cc[nH]n2)cc1)N1Cc2cccn2Cc2ccccc21 [Example 24, [4-(1H-Pyrazol-3-yl)-phenyl]-(5H,11H-pyrrolo[2,1-c][1,4]benzodiazepin-10-yl)-methanone] |
| – | – | 979 | 87 | Cn1ccc(-c2ccc(C(=O)N3Cc4cccn4Cc4ccccc43)cc2)n1 [Example 25, [4-(1-Methyl-1H-pyrazolyl-3-yl)-phenyl]-(5H,11H-pyrrolo[2,1-c][1,4]-benzodiazepin-10-yl)-methanone] |
| – | – | 279 | 54 | CCn1ccc(-c2ccc(C(=O)N3Cc4cccn4Cc4ccccc43)cc2)n1 [Example 26, [4-(1-Ethyl-1H-pyrazol-3-yl)-phenyl]-(5H,11H-pyrrolo[2,1-c][1,4]-benzodiazepin-10-yl)-methanone] |
| – | – | 183 | 76 | CCCn1ccc(-c2ccc(C(=O)N3Cc4cccn4Cc4ccccc43)cc2)n1 [Example 27, [4-(1-Propyl-1H-pyrazol-3-yl)-phenyl]-(5H,11H-pyrrolo[2,1-c][1,4]-benzodiazepin-10-yl)-methanone] |
| – | – | 37 | 75 | CCCCn1ccc(-c2ccc(C(=O)N3Cc4cccn4Cc4ccccc43)cc2)n1 [Example 28, [4-(1-Butyl-1H-pyrazol-3-yl)-phenyl]-(5H,11H-pyrrolo[2,1-c][1,4]-benzodiazepin-10-yl)-methanone] |
| – | – | 305 | 66 | COCn1ccc(-c2ccc(C(=O)N3Cc4cccn4Cc4ccccc43)cc2)n1 [Example 29, [4-(1-methoxymethyl-1H-pyrazol-3-yl)-phenyl]-(5H,11H-pyrrolo[2,1-c][1,4]-benzodiazepin-10-yl)-methanone] |
| – | – | 298 | 72 | CCC(=O)n1ccc(-c2ccc(C(=O)N3Cc4cccn4Cc4ccccc43)cc2)n1 [Example 31, 1-{3-[4-(5H,11H-Pyrrolo[2,1-c][1,4]benzodiazepine-10-carbonyl)-phenyl]-pyrazol-1-yl}-propan-1-one] |
| – | – | 373 | 77 | O=C(c1ccc(-c2ccn(C(=O)C3CC3)n2)cc1)N1Cc2cccn2Cc2ccccc21 [Example 32, [4-(1-Cyclopropanecarbonyl-1H-pyrazol-3-yl)-phenyl]-(5H,11H-pyrrolo[2,1-c][1,4]benzodiazepin-10-yl)-methanone] |
| – | – | 308 | 63 | Cc1ccc(F)cc1C(=O)n1ccc(-c2ccc(C(=O)N3Cc4cccn4Cc4ccccc43)cc2)n1 [Example 35, {4-[1-(5-Fluoro-2-methyl-benzoyl)-1H-pyrazol-3-yl]-phenyl}-(5H,11H-pyrrolo[2,1-c][1,4]benzodiazepin-10-yl)-methanone] |
| – | – | 253 | 69 | O=C(c1ccc(-c2ccn(C(=O)Cc3ccc(Cl)cc3Cl)n2)cc1)N1Cc2cccn2Cc2ccccc21 [Example 39, 2-(2,4-Dichloro-phenyl)-1-{3-[4-(5H,11H-pyrrolo[2,1-c][1,4]benzodiazepine-10-carbonyl)-phenyl]-pyrazol-1-yl}-ethanone] |
| – | – | 183 | 46 | O=C(c1ccc(-c2ccn(C(=O)c3ccccc3-c3ccccc3)n2)cc1)N1Cc2cccn2Cc2ccccc21 [Example 40, {4-[1-(Biphenyl-2-carbonyl)-1H-pyrazol-3-yl]-phenyl}-(5H,11H-pyrrolo[2,1-c][1,4]benzodiazepin-10-yl)-methanone] |
| – | – | 240 | 69 | O=C(c1ccc(-c2ccn(C(=O)c3ccccc3-c3ccc(C(F)(F)F)cc3)n2)cc1)N1Cc2cccn2Cc2ccccc21 [Example 41, {4-[1-(4′-Trifluoromethyl-biphenyl-2-carbonyl)-1H-pyrazol-3-yl]-phenyl}-(5H,11H-pyrrolo[2,1-c][1,4]benzodiazepin-10-yl)-methanone] |

The remaining lines, values behind:

| Structure (SMILES) | Osmolality (% Increase) (1 mg/kg) | Urine Volume (% decrease) (1 mg/kg) | Osmolality (% Increase) (10 mg/kg oral) [%] | Urine Volume (% decrease) [1] [%] |
| --- | --- | --- | --- | --- |
| Cc1ccn(-c2ccc(C(=O)N3Cc4cccn4Cc4ccccc43)c(C(F)(F)F)c2)n1 [Example 2, [4-(3-Methyl-pyrazol-1-yl)-2-trifluoromethyl-phenyl](5H,11H-pyrrolo[2,1-c]-[1,4]benzodiazepin-10-yl)-methanone] | 306% (1 mg/kg) | 80% (1 mg/kg) | – | – |
| Cc1cnn(-c2ccc(C(=O)N3Cc4cccn4Cc4ccccc43)c(C(F)(F)F)c2)c1 [Example 3, [4-(4-Methyl-pyrazol-1-yl)-2-trifluoromethyl-phenyl]-(5H,11H-pyrrolo[2,1-c][1,4]benzodiazepin-10-yl)-methanone] | – | – | 240 | 58 |
| O=C(c1ccc(-n2cccn2)cc1C(F)(F)F)N1Cc2cccn2Cc2ccccc21 [Example 4, (4-Pyrazol-1-yl-2-trifluoromethyl-phenyl)-(5H,11H-pyrrolo[2,1-c][1,4]benzodiazepin-10-yl)-methanone] | – | – | 225 | 57 |
| Cc1cn(-c2ccc(C(=O)N3Cc4cccn4Cc4ccccc43)c(C(F)(F)F)c2)cn1 [Example 6, [4-(4-Methyl-imidazol-1-yl)-2-trifluoromethyl-phenyl]-(5H,11H-pyrrolo[2,1-c][1,4]benzodiazepin-10-yl)-methanone] | – | – | 270 | 58 |
| O=C(c1ccc(-n2cncn2)cc1C(F)(F)F)N1Cc2cccn2Cc2ccccc21 [Example 7, (5H,11H-Pyrrolo[2,1-c][1,4]benzodiazepin-10-yl)-(4-[1,2,4]triazol-1-yl-2-trifluoromethylphenyl)-methanone] | – | – | 137 | 13 |
| Cc1ccnn1-c1ccc(C(=O)N2Cc3cccn3Cc3ccccc32)c(Cl)c1 [Example 9B] | – | – | 168 | 21 |
| Cc1cnn(-c2ccc(C(=O)N3Cc4cccn4Cc4ccccc43)c(Cl)c2)c1 [Example 11] | – | – | 285 | 70 |
| Cc1cn(-c2ccc(C(=O)N3Cc4cccn4Cc4ccccc43)c(Cl)c2)cn1 [Example 12, [2-Chloro-4-(4-methyl-imidazol-1-yl)-phenyl]-(5H,11H-pyrrolo[2,1-c][1,4]benzodiazepin-10-yl)-methanone] | – | – | 330 | 69 |
| O=C(c1ccc(-n2ccc(C(F)(F)F)n2)cc1Cl)N1Cc2cccn2Cc2ccccc21 [Example 13, [2-Chloro-4-(3-trifluoromethyl-pyrazol-1-yl)-phenyl]-(5H,11H-pyrrolo[2,1-c][1,4]benzodiazepin-10-yl)-methanone] | – | – | 229 | 50 |
| O=C(c1ccc(-n2cncn2)cc1Cl)N1Cc2cccn2Cc2ccccc21 [Example 14, [2-Chloro-4-(1,2,4-triazol-1-yl)-phenyl]-(5H,11H-pyrrolo[2,1-c][1,4]benzodiazepin-10-yl)-methanone] | – | – | 406 | 86 |
| O=C(c1ccc(-n2cccc2)cc1Cl)N1Cc2cccn2Cc2ccccc21 [Example 15, (2-Chloro-4-pyrrol-1-yl-phenyl)-(5H,11H-pyrrolo[2,1-c][1,4]benzodiazepin-10-yl)-methanone] | – | – | 38 | 47 |
| O=C(c1ccc(-n2cccn2)cc1Cl)N1Cc2cccn2Cc2ccccc21 [Example 16, (2-Chloro-4-pyrazol-1-yl-phenyl)(5H,11H-Pyrrolo[2,1-c][1,4]benzodiazepin-10-yl)-methanone] | – | – | 400 | 88 |
| Cc1ccn(-c2ncc(C(=O)N3Cc4cccn4Cc4ccccc43)c(C(F)(F)F)n2)n1 [Example 20, [2-(3-Methyl-pyrazol-1-yl)-4-trifluoromethyl-pyrimidin-5-yl]-(5H,11H-pyrrolo[2,1-c][1,4]benzodiazepin-10-yl)-methanone] | 152% (1 mg/kg) | 25% (1 mg/kg) | – | – |
| Cc1cnn(-c2ncc(C(=O)N3Cc4cccn4Cc4ccccc43)c(C(F)(F)F)n2)c1 [Example 21, [2-(4-Methyl-pyrazol-1-yl)-4-trifluoromethyl-pyrimidin-5-yl]-(5H,11H-pyrrolo[2,1-c][1,4]benzodiazepin-10-yl)-methanone] | – | – | 181 | 49 |
